In the NIST ThermoML archive (doi:10.1016/j.jct.2007.09.004):

What was measured:
[1] = xn = mol fraction of the nth substance listed; conditions: 101 kPa, Liquid
[2] = relative permittivity at zero frequency (dimensionless); xn = mol fraction of the nth substance listed; conditions: 101 kPa, Liquid, Parallel plate capacitor
[3] = relative permittivity at zero frequency (dimensionless); conditions: 101 kPa, Liquid, Parallel plate capacitor
[4] = 101 kPa, Liquid

OCCOCCOCCO [triethylene glycol] + CCCOCCO
x2 = 0
Conditions | mass density, 293.15 K [kg/m3] | mass density, 298.15 K [kg/m3] | mass density, 303.15 K [kg/m3] | relative permittivity at zero frequency, 293.15 K | relative permittivity at zero frequency, 298.15 K | relative permittivity at zero frequency, 303.15 K
[1] | 1123.74 | 1119.66 | 1115.83 | – | – | –
[2] | – | – | – | 23.69 | 23.07 | 22.43

CCCOCCO [2-propoxyethanol] + OCCOCCOCCOCCO
Conditions | mass density, 293.15 K [kg/m3] | mass density, 298.15 K [kg/m3] | mass density, 303.15 K [kg/m3] | relative permittivity at zero frequency, 293.15 K | relative permittivity at zero frequency, 298.15 K | relative permittivity at zero frequency, 303.15 K
[1], x1 = 0.05 | 1116.81 | 1113.41 | 1110.02 | – | – | –
[1], x1 = 0.0996 | 1109.94 | 1106.38 | 1102.89 | – | – | –
[1], x1 = 0.1997 | 1095.15 | 1091.4 | 1087.69 | – | – | –
[1], x1 = 0.3 | 1079.09 | 1075.16 | 1071.19 | – | – | –
[1], x1 = 0.4012 | 1061.43 | 1057.31 | 1053.07 | – | – | –
[1], x1 = 0.5 | 1042.6 | 1038.25 | 1033.77 | – | – | –
[1], x1 = 0.6 | 1021.64 | 1017.06 | 1012.39 | – | – | –
[1], x1 = 0.7 | 998.51 | 993.75 | 988.93 | – | – | –
[1], x1 = 0.8 | 973.03 | 968.09 | 963.16 | – | – | –
[1], x1 = 0.9 | 944.82 | 939.77 | 934.7 | – | – | –
[1], x1 = 0.95 | 929.54 | 924.43 | 919.34 | – | – | –
[1], x1 = 1 | 913.31 | 908.19 | 903.11 | – | – | –
[2], x1 = 0.05 | – | – | – | 20.13 | 19.58 | 19.01
[2], x1 = 0.1 | – | – | – | 19.82 | 19.26 | 18.68
[2], x1 = 0.2 | – | – | – | 19.18 | 18.62 | 18.05
[2], x1 = 0.3002 | – | – | – | 18.49 | 17.95 | 17.39
[2], x1 = 0.4001 | – | – | – | 17.73 | 17.21 | 16.69
[2], x1 = 0.5003 | – | – | – | 16.88 | 16.4 | 15.91
[2], x1 = 0.6 | – | – | – | 15.95 | 15.53 | 15.07
[2], x1 = 0.7002 | – | – | – | 14.99 | 14.61 | 14.18
[2], x1 = 0.7999 | – | – | – | 14.01 | 13.64 | 13.24
[2], x1 = 0.9 | – | – | – | 12.96 | 12.62 | 12.26
[2], x1 = 0.9501 | – | – | – | 12.38 | 12.07 | 11.73
[2], x1 = 1 | – | – | – | 11.76 | 11.5 | 11.19

CCCOCCO [2-propoxyethanol]
Conditions | mass density, 293.15 K [kg/m3] | mass density, 298.15 K [kg/m3] | mass density, 303.15 K [kg/m3] | relative permittivity at zero frequency, 293.15 K | relative permittivity at zero frequency, 298.15 K | relative permittivity at zero frequency, 303.15 K
[3] | – | – | – | 11.76 | 11.5 | 11.19
[4] | 913.31 | 908.19 | 903.11 | – | – | –

OCCOCCO [diethylene glycol]
Conditions | mass density, 293.15 K [kg/m3] | mass density, 298.15 K [kg/m3] | mass density, 303.15 K [kg/m3] | relative permittivity at zero frequency, 293.15 K | relative permittivity at zero frequency, 298.15 K | relative permittivity at zero frequency, 303.15 K
[3] | – | – | – | 31.81 | 30.95 | 30.03
[4] | 1116.38 | 1113.03 | 1109.47 | – | – | –

OCCOCCO [diethylene glycol] + CCCOCCO
x2 = 0
Conditions | mass density, 293.15 K [kg/m3] | mass density, 298.15 K [kg/m3] | mass density, 303.15 K [kg/m3] | relative permittivity at zero frequency, 293.15 K | relative permittivity at zero frequency, 298.15 K | relative permittivity at zero frequency, 303.15 K
[1] | 1116.38 | 1113.03 | 1109.47 | – | – | –
[2] | – | – | – | 31.81 | 30.95 | 30.03
